Measured values: ChEMBL document CHEMBL5357061, “Enhanced Inhibition of Cancer Cell Migration by a Planar Catechin Analog” (ACS Med Chem Lett, 2024)
The source made the active and inactive calls. The rule behind the calls is not given here.

Tests used:
RGM1 = experiment: Inhibition of cell migration in rat RGM1 cells assessed as reduction in healing of scratched areas at 200 uM measured after 12 hrs by scratch-wound healing assay; type: functional, cell-based
RGK1 = experiment: Inhibition of cell migration in rat RGK1 cells assessed as reduction in healing of scratched areas at 200 uM measured after 12 hrs by scratch-wound healing assay; type: functional, cell-based

SMILES | inhibition (RGM1) | inhibition (RGK1)
Oc1cc(O)c2c(c1)O[C@H](c1ccc(O)c(O)c1)[C@@H](O)C2 | inactive | inactive
CC1(C)O[C@H]2Cc3c(O)cc(O)cc3O[C@@H]2c2cc(O)c(O)cc21 | Active | Active
